We go through three compounds from ChEMBL document CHEMBL1201862, “PubChem BioAssay data set” (2004).

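1) Cells in 96-well plates. 2) Compound, 48 h, 5 concentrations. 3) Linear interpolation between surrounding doses. 4) Unreached endpoint = highest concentration. At the GI50, growth is halved.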 Calls of active or inactive are those of the source. No stated cut-off is given here; in the data, active = GI50 up to about 1.1 µM and inactive = higher.

Some test systems named below: Malme-3M; MDA-MB-435; MDA-MB-231; SR; DU-145; Hs-578T; A498; SK-MEL-28; A549; BT-549; HT-29; COLO 205; HCC 2998; HOP-62; LOX IMVI; NCI-H460; UACC-62; K562; SF-268; KM12.
Holding throughout (test): growth of human tumour cells (NCI), 48 h

Consider `CN(C)c1ccc(/C=C(/NC(=O)c2ccccc2)C(=O)Nc2ccccc2C(=O)O)cc1`, for which the GI50 in the test with Malme-3M, in the test with MDA-MB-435, in the test with MDA-MB-231, with SR, with DU-145 and with Hs-578T was > 100 µM (inactive) in each case. The GI50 was 57 µM (inactive) in the test with A498; > 100 µM (inactive) with SK-MEL-28; > 100 µM (inactive) with A549; > 100 µM (inactive) in the test with BT-549; > 100 µM (inactive) in the test on HT-29; > 100 µM (inactive) in the test on COLO 205. The GI50 with HCC 2998, in the test with HOP-62, in the test with LOX IMVI, with NCI-H460, in the test on UACC-62 and in the test with K562 was > 100 µM (inactive) in each case. Moreover, the GI50 in the test on SF-268 and in the test with KM12 was > 100 µM (inactive) throughout.

For `Cc1oc2c(c1C)S(=O)(=O)C(C#N)=C(c1ccccc1)N2`, the GI50 in the test with Malme-3M was 63.5 µM (inactive); in the test with MDA-MB-435, > 100 µM (inactive); in the test with MDA-MB-231, > 100 µM (inactive); in the test with SR, > 100 µM (inactive); with DU-145, > 100 µM (inactive); with Hs-578T, > 100 µM (inactive). The GI50 with A498, in the test on SK-MEL-28, in the test on A549, with BT-549, with HT-29 and in the test on COLO 205 was > 100 µM (inactive) throughout. The GI50 in the test on HCC 2998, in the test with HOP-62, in the test with LOX IMVI, with NCI-H460, with UACC-62 and in the test on K562 was > 100 µM (inactive) in each case. In addition, the GI50 in the test on SF-268 and in the test on KM12 was > 100 µM (inactive) throughout.

Take `Cc1cc(S(=O)(=O)NC2=NCCCN2)c(S)cc1Cl`: the GI50 was 26.4 µM (inactive) with Malme-3M; 18.3 µM (inactive) in the test with MDA-MB-435; 72.9 µM (inactive) in the test with MDA-MB-231; 21.2 µM (inactive) in the test on SR; 72.4 µM (inactive) with DU-145; 24.5 µM (inactive) in the test on Hs-578T. Also, the GI50 with A498 was > 100 µM (inactive); with SK-MEL-28, 56.4 µM (inactive); in the test on A549, 21.6 µM (inactive); in the test on BT-549, 0.721 µM (active); in the test on HT-29, 20.8 µM (inactive); with COLO 205, 40.4 µM (inactive). For the same compound, the GI50 in the test on HCC 2998 was 36.1 µM (inactive); with HOP-62, 54.3 µM (inactive); in the test on LOX IMVI, 22.1 µM (inactive); with NCI-H460 it was 39.3 µM (inactive); with UACC-62 it was 27.9 µM (inactive); with K562, 22.8 µM (inactive). The GI50 in the test on SF-268 is 87.1 µM (inactive); with KM12 it was 37.8 µM (inactive).
